Patent publication US20030236301A1, “Liposomal delivery of vitamin E based compounds” (priority 2001, published 2003)
Several values for one entry are separate records, joined by “and”; a condition that tells them apart may be missing. Identical values can stand only once. Entries after “also recorded” stand apart in the source; their conditions may differ.

How the values were obtained:
[1] = system: 66 c1.4 GFP murine mammary tumor cells; test: Tumor growth of 66 c1.4-GFP mammary tumor cells in Balb/c mice (tumor volume); conditions: for inhibition of tumor growth: Example 18: liposomal formulation by aerosol; for reduction of mean tumor volume vs aerosol control: Example 25: liposomal α-TEA/aerosol
Method: 66 c1.4-GFP cells were harvested by trypsinization, centrifuged, resuspended in McCoy's media, containing no supplements at a density of 2×10^5/100 μl. Mice were injected in the inguinal area at a point equal distance between the 4th and 5th nipples on the right side using a 23 gauge needle.
50 mice were assigned (10 per group) to aerosol treatment, aerosol control, oral treatment, oral control, or to the no treatment group so that the average tumor volume for all groups were closely matched. […] Tumors were measured using calipers every other day, and volumes were calculated using the formula: volume (mm^3) [width (mm)^2×length (mm)]/2. Body weights were determined weekly.
Balb/c mice were injected with 200,000 66 c1.4 GFP cells subcutaneous in the mammary fat pad area between the 4th and 5th nipple on the right side of the body.
Mice are injected with 200,000 66 c1.4 GFP murine mammary tumor cells as described on day 0. Treatments are initiated on day 9 when tumors reached 1-3 mm in size. Aerosol treatments of α-TEA liposomes (5 mg α-TEA/mouse) are administered daily for 16 days (FIG. 8). Data represent the mean+/−Standard Error (SE), N=10 mice for control and treatment groups.
Balb/c mice were injected s.c. with 2×10^5 66 c1.4-GFP cells in the inguinal area between the 4th and 5th nipple on the right side of the body. When tumors reached 2×2-4×4 mm (9 days after tumor injection), mice were placed into 5 groups ((Group 1: untreated control, Group 2: liposome/aerosol control, Group 3: liposomal α-TEA aerosol treatment, Group 4: peanut oil/gavage control, Group 5: α-TEA in peanut oil/gavage treatment) of 10 mice/group) such that the mean tumor volume of each group was closely matched. Daily treatments were initiated on day 9 after tumor injection.
Balb/c mice were injected with 200,000 66 c1.4 GFP cells subcutaneous in the mammary fat pad area between the 4th and 5th nipple on the right side of the body. […] Animals were treated with α-TEA in liposome, vitamin E succinate in liposome, or control liposome alone via aerosol, 7 days per week, for 21 days. Animals were given 75 mg compound via nebulization per day such that each animal received 36 μg compound per day.
The size of the tumors, 9-21 days after injection of 200,000 66 c1.4 GFP cells between the 4th and 5th nipple on the right side of each mouse, is determined. Treatments are initiated on day 9 after tumor inoculation. Each group consists of n=10+/−SE. Gavage Treatment=Treatments of 5 mg of α-TEA in ethanol and peanut oil (0.1 ml volume) are administered daily starting on day 9 after tumor inoculation and continuing through day 21. Gavage Control=Mice received peanut oil and ethanol alone (0.1 ml volume)/daily, starting on day 9 after tumor inoculation and continuing through day 21. Data (tumor size) are depicted as the mean+/−standard error for days 9, 11, 13, 15, 17, 19, and 21.
Balb/c mice were injected with 200,000 66 c1.4 GFP cells subcutaneous in the mammary fat pad area between the 4th and 5th nipple on the right side of the body. […] Animals were treated with α-TEA in liposome vitamin E succinate in liposome, or control liposome alone via oral gavage, 2 times per day, 7 days per week, for 21 days. Animals were given a total of 6 mg compound per day.

[2] = after thirty minutes, intramuscular delivery; cited from earlier work
[3] = system: 66 c1.4 GFP murine mammary tumor cells; test: Lung and lymph node metastases of 66 c1.4-GFP tumors in Balb/c mice; assay type: in vivo
From the text: Metastastic lesions in the five lung lobes were counted visually at time of sacrifice. Fluorescent green micro-metastatic cancer cell colonies in the left lung lobe and lymph nodes were counted using a Nikon fluorescence microscope (TE-200) with a 20×objective (200× magnification) and Image-Pro Plus (version 4.1; Media Cybernetics, Silver Spring, Md.) software associated with the microscope. Fluorescent lesions were separated into three size grouping: <5 μm, 5-10 μm and >10 μm.
At sacrifice, lungs were taken, examined visually for metastatic lesions and frozen for analyses of micrometastases by fluorescence.
Use of a Nikon fluorescence microscope and Image-Pro Plus software permitted measurement of green fluorescing micrometastases into three size groupings of <5 μm, 5-10 μm and >10 μm.
At sacrifice, the left lung lobe of each mouse of flash frozen and saves for detection of GFP expressing micrometatstic lesions via fluorescent microscopy.

MDA-MB-435 GFP FL cells = test: Tumor growth of MDA-MB-435 GFP FL breast cancer cells in nude mice; assay type: in vivo, Nu/Nu athymic nude mice; conditions: for reduction of tumor growth: Example 32: liposome gavage, 8 mg per day
Method: Animals were given a total of 8 mg compound per day. […] Alpha-TEA liposome gavage reduced tumor growth by 68, 75, 78, 79 and 79% on days 27, 29, 31, 33, and 35, respectively (FIG. 15).
Animals were […] 3 ppm methylselenocysteine (MSC) in water, α-TEA in liposome via aerosol, or gavaged 10 mg/kg b.w. trans-resveratrol (t-RES) in first 1:1. EtOH:physiological saline, and starting at day 24, 6.5% EtOH and 93.5% Neobee oil. A combination group was treated with each of the above three compounds, and a control group was treated with aerosolized liposome. 100 μl water, and 50 μl of the t-Res solvent. Animals were treated seven days a week, for 35+ days.

66 c1.4-GFP cells [4] = test: Apoptosis by morphological evaluation of DAPI-stained nuclei; conditions: three days; for nuclear morphology of DAPI stained cells: 10 μg/ml
Method: Briefly, 1×10^5 cells/well in 12-well plates were cultured overnight to permit attachment. […] After treatment, floating cells plus scraped-released adherent cells were pelleted by centrifugation for 5 min at 350×g, washed one time with phosphate buffered saline (PBS; 137 mM NaCl, 2.7 mM KCL, 10.4 mM Na2HPO4, 10.5 mM KH2PO4; pH 7.2), and stained with 2 μg/ml of 4′,6-diamidino-2-phenylindole dihydrochloride (DAPI, Boehringer Mannheim, Indianapolis, Ind.) in 100% methanol for 15 min at 37° C.
Cells were viewed at 400× magnification with a Zeiss ICM 405 fluorescent microscope using a 487701 filter. […] Data are reported as percentage of apoptotic cells per cell population, i.e., number apoptotic cells/total number of cells counted. Three different microscopic fields were examined and 200 cells counted at each location for a minimum of 600 cells counted per slide. Apoptotic data are presented as mean±S.D. for three independently conducted experiments.

66 c1.4-GFP cells [5] = test: Colony-forming assay; conditions: 10 days
Method: 66 c1.4-GFP cells were seeded at 600 cells per 35×10 mm tissue culture plate (Nunclon, Rochester, N.Y.) and allowed to adhere over night at 37° C. […] Treatments were left on the cells for 10 days without change of media. After 10 days, media were removed and plates were washed with PBS three times. Cells were stained for 30 min with 1% methylene blue in PBS and colonies >0.5 mm manually counted.

[6] = AeroTech II nebulizer; geometric standard deviation 2.04
Method: Aerosol was administered to mice as previously described (17).

[7] = system: A2780 cisplatin-sensitive cell line; test: Apoptosis in A2780 ovarian cancer cells in vitro; assay type: cell-based, human; conditions: treated in culture
[8] = system: Poly (ADP-Ribose) Polymerase (PARP) cleavage in 66 c1.4-GFP cells; test: Western immunoblot detection of PARP cleavage fragment; assay type: cell-based, mouse; conditions: 48 hours
Method: Poly (ADP-Ribose) Polymerase cleavage was analyzed as an alternate method for detecting apoptosis. 66 c1.4-GFP cells were treated as described above for the DAPI assay. Following the PBS wash, cells were suspended in lysis buffer (1×PBS, 1% Nonidet P-40, 0.5% sodium deoxycholate, 0.1% sodium dodecyl sulfate (SDS), 1 μg/ml leupeptin, 1 μg/ml aprotinin, 1 mM dithiothreitol (DTT), 2 mM sodium orthovanadate, 10 μg/ml phenylmethylsulfonyl fluoride (PMSF)) for 30 min at 4° C., vortexed, and supernatants collected by centrifugation at 15,000×g for 20 min. Protein concentrations were determined using the Bio-Rad (Bradford) protein assay (Bio-Rad Laboratories, Hercules, Calif.), and samples (100 μg/lane) resolved on 7.5% SDS-polyacrylamide gels electrophoresed under reducing conditions.
Proteins were electroblotted onto a nitrocellulose membrane ([…] Optitran BA-S-supported nitrocellulose; Schleicher and Schuell, Keene, N.H.). After transfer, membranes were blocked with blocking buffer [25 mM Tris-HCl (pH 8.0), 125 mM NaCl, 0.5% Tween-20, and 5% non-fat dry milk] for 45 min at room temperature. Immunoblotting was performed using 1 μg of primary rabbit anti-human Poly (ADP-Ribose) Polymerase antibody [PARP (H-250), Santa Cruz Biotechnology, Santa Cruz, Calif.], and horseradish peroxidase-conjugated goat anti-rabbit immunoglobulin was used as the secondary antibody (Jackson Immunoresearch Laboratory, West Grove, Pa.) at a 1:3,000 dilution. Horseradish peroxidase-labeled bands from washed blots were detected by enhanced chemiluminescence (Pierce, Rockford, Ill.) and autoradiography (Kodak BioMax film; Rochester, N.Y.).

[9] = Serum and tissue levels of α-TEA after liposomal aerosol (HPLC); assay type: in vivo, mice
Method: Eight mice are treated via pulmonary aerosol delivery with 40 mg of α-TEA (5 mg/mouse) in 6 ml liposomes. The mice inhaled the aerosol over a period of 30 minutes until delivery was complete. Mice are sacrificed 0, 2, 6, or 24 hours after the treatment ended. Serum and tissue levels of α-TEA are determined by HPLC analyses (FIG. 7).

[10] = Body weight and long term safety in Balb/c mice; assay type: in vivo
Method: Body weights were determined weekly.
Nine days after tumor inoculation, treatments groups are initiated: Aerosol Treatment (TX)=aerosol delivery of α-TEA liposome (5 mg/mouse)/daily through day 23. Aerosol Control=Aerosol delivery of liposome composition only daily through day 23. Gavage treatment=gavage administration of α-TEA at 5 mg/mouse in ethanol/peanut oil daily through day 23. Gavage control=gavage administration of ethanol/peanut oil only through day 23. Mice were weighed at the initiation of treatment (day 9) and thereafter on days 13, 16, 20, and 23 (FIG. 6). Data are presented as the mean+/−standard deviation.

[11] = Aerosol characteristics: estimated α-TEA deposited in respiratory tract (HPLC, All Glass Impinger); parameters: species or system mouse; conditions: liposomal aerosol, 15 min, estimated deposited fraction 30%
Method: HPLC analyses were conducted on α-TEA liposomes recovered from aerosol in the All Glass Impinger (Ace Glass Co., Vineland, N.J.). The delivered dosage=concentration (μg/L)×mouse minute volume (1-min/kg)×duration of delivery (min)×estimated deposited fraction (30%; 17).

[12] = system: cp-70 human ovarian cancer cells; test: Apoptosis in cp-70 ovarian cancer cells in vitro; assay type: cell-based; conditions: treated in culture
[13] = 75 mg in nebulizer/day, day 15 of treatment
[14] = 75 mg in nebulizer/day, day 17 of treatment
[15] = Example 18: liposomal preparation delivered by aerosol
[16] = Example 31: liposomal formulation via gavage, 6 mg per day
[17] = Example 33: liposomal aerosol, α-TEA 5 mg/d, 9NC 2 μg/d in nebulizer, listed as Lip/α-TEA
[18] = liposomal aerosol, at sacrifice

In the case of CC(=O)Oc1c(C)c(C)c2c(c1C)CCC(C)(CCCC(C)CCCC(C)CCCC(C)C)O2 (racemic) [dl-α tocopherol acetate, dl-α-tocopherol acetate], the “inhibition of tumor growth” value [1, 13] is reported as 29% and the “inhibition of tumor growth” value [1, 14] is reported as 57%.
In the case of CC[C@@]1(O)C(=O)OCc2c1cc1n(c2=O)Cc2cc3c([N+](=O)[O-])cccc3nc2-1 [9-nitrocamptothecin, reference compound], the “Levels of 9-nitrocamptothecin in the brain” value [2] is given as 0 and the “Inhibition (%) Metastases Lymphnode” value ([3]; Example 33: liposomal aerosol, α-TEA 5 mg/d, 9NC 2 μg/d in nebulizer, listed as Lip/9NC) is given as 60%.
For Cc1cc(O)cc2c1O[C@](C)(CCC[C@H](C)CCC[C@H](C)CCCC(C)C)CC2 [RRR-delta tocopherol, RRR-delta-tocopherol], the “inhibition of tumor growth” value [1, 13] was 25% and the “inhibition of tumor growth” value [1, 14] was 40%.
With Cc1c(C)c2c(c(C)c1O)CC[C@@](C)(CCC[C@H](C)CCC[C@H](C)CCCC(C)C)O2 [RRR-α tocopherol, RRR-α-tocopherol] the “effect on tumor growth” value [1, 15] was “enhanced tumor growth” and the “tumor volume compared with control mice” value [1, 15] was “not significantly greater”.
With CC(C)=CCC/C(C)=C/CC/C(C)=C/CC[C@]1(C)CCc2c(C)c(O)c(C)c(C)c2O1 [RRR-α-tocotrienol] the “inhibition of tumor growth” value [1, 13] was 34% and the “inhibition of tumor growth” value [1, 14] was 27%.
For Cc1c(O)cc2c(c1C)O[C@](C)(CCC[C@H](C)CCC[C@H](C)CCCC(C)C)CC2 [RRR-γ tocopherol, RRR-γ-tocopherol], the “effect on tumor growth” value [1, 15] was “enhanced tumor growth” and the “tumor volume compared with control mice” value [1, 15] was “significantly higher”.
In the case of Oc1ccc(/C=C/c2cc(O)cc(O)c2)cc1 [t-RES, trans-resveratrol, reference compound], the “increase of tumor volume from the control” value (MDA-MB-435 GFP FL cells; Example 35: day 35) is reported as 61.2%.
For Cc1c(C)c2c(c(C)c1OC(=O)CCC(=O)O)CC[C@@](C)(CCC[C@H](C)CCC[C@H](C)CCCC(C)C)O2 [vitamin E succinate, RRR-α-tocopheryl succinate, reference compound], the “effect on lung metastasis” value [3, 16] was “no effect on lung metastasis”, the “effect on lymph node micrometastatic lesions (FIG. 14B)” value [3, 16] was “not effective” and the “apoptosis (percentage of apoptotic cells)” value (66 c1.4-GFP cells [4]; 2.5 μg/ml) was 3%. For the same compound, the “apoptosis (percentage of apoptotic cells)” value (66 c1.4-GFP cells [4]; 5 μg/ml) was 5%, the “nuclear morphology of DAPI stained cells” value (66 c1.4-GFP cells [4]) was “exhibited condensation and fragmented DNA” and the “reduction of tumor growth” value ([1]; Example 26: liposome aerosol, 75 mg in nebulizer/day, day 17) was 76%. The “effect on tumor growth” value ([1]; Example 30: liposome gavage, 6 mg per day, 21 days) was “did not reduce tumor growth”.
With Cc1c(C)c2c(c(C)c1OCC(=O)O)CC[C@@](C)(CCC[C@H](C)CCC[C@H](C)CCCC(C)C)O2 [α-TEA, 2,5,7,8-tetramethyl-(2R-(4R,8R,12-trimethyltridecyl)chroman-6-yloxy) Acetic Acid] the “reduction of tumor growth” value (MDA-MB-435 GFP FL cells; day 27) was 68%, the “reduction of tumor growth” value (MDA-MB-435 GFP FL cells; day 29) was 75% and the “reduction of tumor growth” value (MDA-MB-435 GFP FL cells; day 31) was 78%. For the same compound, the “reduction of tumor growth” value (MDA-MB-435 GFP FL cells; day 33) was 79%, the “reduction of tumor growth” value (MDA-MB-435 GFP FL cells; day 35) was 79% and the “decrease of tumor volume from the control” value (MDA-MB-435 GFP FL cells; Example 35: day 35) was 47.8%. The “lymph node micrometastatic lesions (average)” value [3, 16] was 3.1±0.8, the “Inhibition (%) Metastases Lung” value [3, 17] was 71% and the “Inhibition (%) Metastases Lymphnode” value [3, 17] was 94%. For the same compound, the “Inhibition (%) Metastases Lung” value ([3]; Liposomal, Aerosol, 5 mg/d, vs aerosol control) was 81%, the “Inhibition (%) Metastases Lung” value ([3]; Liposomal, Gavage, 3 mg/2× d) was 59% and the “Inhibition (%) Metastases Lymphnode” value ([3]; Liposomal, Gavage, 3 mg/2× d) was 56%. The “No. Animals/Group with Visible Lung Metastases” value [3, 18] was 0/10, the “No. Visible Lung Tumor Foci/Animal” value [3, 18] was “No visible tumors” and the “No. Visible Lung Tumor Foci/Animal” value ([3]; liposomal aerosol, at sacrifice, listed as Aer./Liposome/α-TEA) was 0. The “decrease of colony formation compared to EtOH control” value (66 c1.4-GFP cells [5]; 1.25 μg/ml) was 30%, the colony formation (66 c1.4-GFP cells [5]; 5 μg/ml) was “No colonies formed” and the colony formation (66 c1.4-GFP cells [5]; 10 μg/ml) was “No colonies formed”. The “mass median aerodynamic diameter of liposome aerosol” value [6] was 2.01 μm, the “apoptosis (percentage of apoptotic cells)” value (66 c1.4-GFP cells [4]; 2.5 μg/ml) was 5% and the “apoptosis (percentage of apoptotic cells)” value (66 c1.4-GFP cells [4]; 5 μg/ml) was 6%. The “nuclear morphology of DAPI stained cells” value (66 c1.4-GFP cells [4]) was “exhibited condensation and fragmented DNA”, the induction of apoptosis [7] was “undergo apoptosis” and the “PARP cleavage (84 kDa fragment)” value ([8]; 5 μg/ml) was “only intact PARP protein was detected”. For the same compound, the “PARP cleavage (84 kDa fragment)” value ([8]; 10 μg/ml) was “evident”, the “PARP cleavage (84 kDa fragment)” value ([8]; 20 μg/ml) was “evident” and the “serum and tissue presence of α-TEA” value ([9]; liposomal aerosol 5 mg/mouse over 30 minutes, 0 hours after treatment ended) was “found only in the stomach tissue”. The “serum and tissue presence of α-TEA” value ([9]; liposomal aerosol 5 mg/mouse, 2 hours after completion of treatment) was “present in the serum and stomach”, the “serum and tissue presence of α-TEA” value ([9]; liposomal aerosol 5 mg/mouse, 6 hours after completion of treatment) was “present in the liver and stomach” and the “serum and tissue presence of α-TEA” value ([9]; liposomal aerosol 5 mg/mouse, 24 hours after completion of treatment) was “present in the liver and stomach”. The “reduction of mean tumor volume vs aerosol control” value ([1]; day 13 of treatment) was 50%, the “reduction of mean tumor volume vs aerosol control” value ([1]; day 17 of treatment) was 61% and the “reduction of tumor growth” value ([1]; Example 26: liposome aerosol, 75 mg in nebulizer/day, day 21) was 67%. For the same compound, the “tumor weights vs gavage control” value ([1]; Example 27: gavage, 5 mg in ethanol and peanut oil daily, days 9-21) was “no significant differences”, the “mean tumor volume vs gavage control” value ([1]; Example 28: gavage, 5 mg/day/mouse EtoH/peanut oil formulation) was “did not differ” and the “reduction of tumor growth” value ([1]; Example 30: liposome gavage, 6 mg per day, day 15) was 85%. For the same compound, the “reduction of tumor growth” value ([1]; Example 30: liposome gavage, 6 mg per day, day 17) was 85%, the “reduction of tumor growth” value ([1]; Example 30: liposome gavage, 6 mg per day, day 21) was 70% and the “Inhibition (%) Tumor Growth” value [1, 17] was 65%. The “Inhibition (%) Tumor Growth” value ([1]; Liposomal, Gavage, 3 mg/2× d) was 70%, the “long term adverse effects” value ([10]; non-tumor bearing mice, aerosol or gavage for 17 days, kept eleven months) was “did not show any adverse effects” and the “body weight vs control groups” value ([10]; tumor-bearing mice, liposome aerosol or gavage in ethanol/peanut oil, 5 mg/mouse daily) was “no significant weight differences; also recorded: No differences in mean body weights”. For the same compound, the “α-TEA deposited in the respiratory tract of each mouse each day” value [11] was “approximately 36 μg and ~36 μg” and the induction of apoptosis [12] was “undergo apoptosis”.
